Data from PubChem BioAssay AID2060503 (Molecular Pharmacology Branch, DTP, NCI, 2025).

Tested on: 817829-284-R-J1-PDC complex spheroids, viability
Assay: Anticancer human tumor 817829-284-R-J1-PDC patient-derived colon adenocarcinoma cell line growth inhibition [GQUAD]
Settings: for IC50: curve of first compound; for viability, T/C: stronger effect = lower value
Outline: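 Multi-cell-type spheroids of tumor cells with HUVEC and mesenchymal stem cells, treated with drug combinations. Concentrations descend in half-log steps from near clinical Cmax, or from 10 microM where Cmax is unknown; viability read-out.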

[1] = second compound 0.0316 µM, first compound 0.0316 µM
[2] = second compound 0.0316 µM, first compound 0.1 µM
[3] = second compound 0.0316 µM, first compound 0.316 µM
[4] = second compound 0.0316 µM, first compound 1 µM
[5] = second compound 0.0316 µM, first compound 3.16 µM
[6] = second compound 0.0316 µM, first compound 10 µM
[7] = second compound 0.1 µM, first compound 0.0316 µM
[8] = second compound 0.1 µM, first compound 0.1 µM
[9] = second compound 0.1 µM, first compound 0.316 µM
[10] = second compound 0.1 µM, first compound 1 µM
[11] = second compound 0.1 µM, first compound 3.16 µM
[12] = second compound 0.1 µM, first compound 10 µM
[13] = second compound 0.316 µM, first compound 0.0316 µM
[14] = second compound 0.316 µM, first compound 0.1 µM
[15] = second compound 0.316 µM, first compound 0.316 µM
[16] = second compound 0.316 µM, first compound 1 µM
[17] = second compound 0.316 µM, first compound 3.16 µM
[18] = second compound 0.316 µM, first compound 10 µM
[19] = second compound 1 µM, first compound 0.0316 µM
[20] = second compound 1 µM, first compound 0.1 µM
[21] = second compound 1 µM, first compound 0.316 µM
[22] = second compound 1 µM, first compound 1 µM
[23] = second compound 1 µM, first compound 3.16 µM
[24] = second compound 1 µM, first compound 10 µM
[25] = second compound 3.16 µM, first compound 0.0316 µM
[26] = second compound 3.16 µM, first compound 0.1 µM
[27] = second compound 3.16 µM, first compound 0.316 µM
[28] = second compound 3.16 µM, first compound 1 µM
[29] = second compound 3.16 µM, first compound 3.16 µM
[30] = second compound 3.16 µM, first compound 10 µM
[31] = second compound 10 µM, first compound 0.0316 µM
[32] = second compound 10 µM, first compound 0.1 µM
[33] = second compound 10 µM, first compound 0.316 µM
[34] = second compound 10 µM, first compound 1 µM
[35] = second compound 10 µM, first compound 3.16 µM
[36] = second compound 10 µM, first compound 10 µM
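Note: spheroids exposed to agents for 7 days before readout.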
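Throughout, for viability, T/C: percent viability relative to DMSO vehicle control taken as 100%.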

C#Cc1c(F)ccc2cc(O)cc(-c3ncc4c(N5CC6CCC(C5)N6)nc(OCC56CCCN5CC(F)C6)nc4c3F)c12 (stereo unspecified) + Cc1[nH]c2ccc(F)cc2c1-c1nc2c3cccnc3c3ncccc3c2[nH]1
IC50 (second compound 0.0316 µM): > 10000 nM | IC50 (second compound 0.1 µM): > 10000 nM | IC50 (second compound 0.316 µM): > 10000 nM | IC50 (second compound 1 µM): 5600 nM | IC50 (second compound 3.16 µM): < 31.6 nM | IC50 (second compound 10 µM): < 31.6 nM | viability, T/C [1]: 96.1% | viability, T/C [2]: 95% | viability, T/C [3]: 96.2% | viability, T/C [4]: 90.4% | viability, T/C [5]: 98% | viability, T/C [6]: 118% | viability, T/C [7]: 97.6% | viability, T/C [8]: 108% | viability, T/C [9]: 88.2% | viability, T/C [10]: 102% | viability, T/C [11]: 91.1% | viability, T/C [12]: 108% | viability, T/C [13]: 91% | viability, T/C [14]: 96.1% | viability, T/C [15]: 99.7% | viability, T/C [16]: 86.6% | viability, T/C [17]: 98.8% | viability, T/C [18]: 81.1% | viability, T/C [19]: 102% | viability, T/C [20]: 90.4% | viability, T/C [21]: 103% | viability, T/C [22]: 93% | viability, T/C [23]: 94.5% | viability, T/C [24]: 4.87% | viability, T/C [25]: 3.89% | viability, T/C [26]: 4.3% | viability, T/C [27]: 3.9% | viability, T/C [28]: 3.3% | viability, T/C [29]: 1.62% | viability, T/C [30]: 0.11% | viability, T/C [31]: 3% | viability, T/C [32]: 12.8% | viability, T/C [33]: 3.04% | viability, T/C [34]: 2.02% | viability, T/C [35]: 2.19% | viability, T/C [36]: 0.17%

C=CCn1c(=O)c2cnc(Nc3ccc(N4CCN(C)CC4)cc3)nc2n1-c1cccc(C(C)(C)O)n1 + Cc1[nH]c2ccc(F)cc2c1-c1nc2c3cccnc3c3ncccc3c2[nH]1
IC50 (second compound 0.0316 µM): 220 nM | IC50 (second compound 0.1 µM): 240 nM | IC50 (second compound 0.316 µM): 259 nM | IC50 (second compound 1 µM): 221 nM | IC50 (second compound 3.16 µM): < 31.6 nM | IC50 (second compound 10 µM): < 31.6 nM | viability, T/C [1]: 101% | viability, T/C [2]: 92.9% | viability, T/C [3]: 30.2% | viability, T/C [4]: 8.8% | viability, T/C [5]: 6.61% | viability, T/C [6]: 5.37% | viability, T/C [7]: 82.1% | viability, T/C [8]: 111% | viability, T/C [9]: 35.2% | viability, T/C [10]: 7.33% | viability, T/C [11]: 6.25% | viability, T/C [12]: 4.08% | viability, T/C [13]: 97.2% | viability, T/C [14]: 109% | viability, T/C [15]: 38.9% | viability, T/C [16]: 8.37% | viability, T/C [17]: 6.05% | viability, T/C [18]: 4.81% | viability, T/C [19]: 104% | viability, T/C [20]: 103% | viability, T/C [21]: 26.2% | viability, T/C [22]: 8.6% | viability, T/C [23]: 6.38% | viability, T/C [24]: 4.1% | viability, T/C [25]: 46.1% | viability, T/C [26]: 30.2% | viability, T/C [27]: 8.17% | viability, T/C [28]: 5.38% | viability, T/C [29]: 4.83% | viability, T/C [30]: 4.49% | viability, T/C [31]: 28.6% | viability, T/C [32]: 14.8% | viability, T/C [33]: 6.57% | viability, T/C [34]: 4.68% | viability, T/C [35]: 5.07% | viability, T/C [36]: 4.08%

CC(=O)O[C@H]1C(=O)[C@@]2(C)[C@H]([C@H](OC(=O)c3ccccc3)[C@]3(O)C[C@H](OC(=O)[C@H](O)[C@@H](NC(=O)c4ccccc4)c4ccccc4)C(C)=C1C3(C)C)[C@]1(OC(C)=O)CO[C@@H]1C[C@@H]2O + Cc1[nH]c2ccc(F)cc2c1-c1nc2c3cccnc3c3ncccc3c2[nH]1
IC50 (second compound 0.0316 µM): < 31.6 nM | IC50 (second compound 0.1 µM): < 31.6 nM | IC50 (second compound 0.316 µM): < 31.6 nM | IC50 (second compound 1 µM): < 31.6 nM | IC50 (second compound 3.16 µM): < 31.6 nM | IC50 (second compound 10 µM): < 31.6 nM | viability, T/C [1]: 7.69% | viability, T/C [2]: 5% | viability, T/C [3]: 4.12% | viability, T/C [4]: 4.33% | viability, T/C [5]: 3.69% | viability, T/C [6]: 5.32% | viability, T/C [7]: 6.62% | viability, T/C [8]: 5.4% | viability, T/C [9]: 5.3% | viability, T/C [10]: 3.81% | viability, T/C [11]: 4.86% | viability, T/C [12]: 4.62% | viability, T/C [13]: 7.16% | viability, T/C [14]: 5.87% | viability, T/C [15]: 4.46% | viability, T/C [16]: 3.72% | viability, T/C [17]: 4.25% | viability, T/C [18]: 5.31% | viability, T/C [19]: 7.59% | viability, T/C [20]: 6.66% | viability, T/C [21]: 6.33% | viability, T/C [22]: 6.63% | viability, T/C [23]: 6.34% | viability, T/C [24]: 6.37% | viability, T/C [25]: 3.48% | viability, T/C [26]: 4.37% | viability, T/C [27]: 3.76% | viability, T/C [28]: 3.37% | viability, T/C [29]: 3.38% | viability, T/C [30]: 3.67% | viability, T/C [31]: 3.27% | viability, T/C [32]: 3.76% | viability, T/C [33]: 3.43% | viability, T/C [34]: 2.91% | viability, T/C [35]: 3.42% | viability, T/C [36]: 3.04%
